Laboratory results reported in US20220362165A1, “TETRABENAZINE TRANSDERMAL DELIVERY DEVICE” (SHINKEI THERAPEUTICS LLC, priority 2019, published 2022).

Assay: clinical
Conditions: male, human, in vivo
Procedure: This was an open-label, randomized, two-treatment, two-period, two-sequence, crossover study under fasted conditions comparing the test and reference products. The study was conducted with 16 healthy, non-tobacco-, non-nicotine-using, adult male subjects. In one period of the study, one (1) TBZ patch, 8 mg/96 hr was applied to the subject's upper outer left arm and kept in place for 96 hours following an overnight fast of at least 10 hours. In the other study period, 1×12.5 mg Tetrabenazine Tablet (Lupin) was administered every 8 hours from Day 1 through Day 4 for a total daily dose of 37.5 mg and a total dose of 150 mg for the 12 doses over the 4 days. […]
Blood samples were collected pre-dose and at intervals over 120 hours after dosing (0-hour) with the study drug in each study period. Samples were analyzed by the bioanalytical laboratory for those subjects who were dosed with at least one of the study products (Treatment A or B).
The plasma concentrations of TBZ (RR and SS isomers) and its active metabolites (RRR, SSS, SRR and RSS) were measured by a fully validated analytical procedure. […]
The plasma concentrations of TBZ (RR and SS isomers) and its HTBZ metabolites (RRR, SSS, SRR and RSS) were measured by a fully validated analytical procedure for those subjects who were dosed with at least one of the study products (Treatment A or B).

Question: Which half-life does the source give for `COc1cc2c(cc1OC)[C@H]1CC(=O)[C@H](CC(C)C)CN1CC2` [R,R-tetrabenazine, (3R,11bR)-1,3,4,6,7,11b-Hexahydro-9,10-dimethoxy-3-(2-methylpropyl)-2H-benzo[a]quinolizin-2-one] here?
Answer: Its half-life is ~8.5 h.
